From BindingDB's records for doi:10.1016/j.bmcl.2004.01.094 (Arqule, 2004) come the findings set out here.

Test [1] has as its target Methionyl-tRNA synthetase (Enterococcus faecalis). The test is described as follows: Inhibition of Enterococci faecalis methionyl-tRNA synthetase (EfMetRS).
Test [2] deals with Methionyl-tRNA synthetase (Staphylococcus aureus). The test is described as follows: Inhibition of Staphylococcus aureus methionyl-tRNA synthetase (SaMetRS).
Test [3] shares this target. The test is described as above. The source holds these as a separate data set.

In general, IC50 refers to the concentration at which inhibition is half-maximal. A lower IC50 goes with higher potency.

With `NC(=O)[C@H](Cc1ccc(O)cc1)NC(=O)[C@@H]1CCCN1/C=C1\N=C(c2ccc(Cl)cc2Cl)OC1=O` [(S)-1-[2-(2,4-Dichloro-phenyl)-5-oxo-oxazol-(4Z)-ylidenemethyl]-pyrrolidine-2-carboxylic acid [(S)-1-carbamoyl-2-(4-hydroxy-phenyl)-ethyl]-amide], the results for the IC50 in test [1] and in test [2] were 14000 nM and 680 nM, respectively.
Regarding `NC(=O)[C@H](Cc1ccc(O)cc1)NC(=O)[C@@H]1CCN1/C=C1\N=C(c2ccc(Br)cc2)OC1=O` [(S)-1-[2-(4-Bromo-phenyl)-5-oxo-oxazol-(4Z)-ylidenemethyl]-azetidine-2-carboxylic acid [(S)-1-carbamoyl-2-(4-hydroxy-phenyl)-ethyl]-amide], the IC50 in test [1] is 1400 nM; in test [2], 510 nM.
In the case of `NC(=O)[C@H](Cc1ccc(O)cc1)NC(=O)[C@@H]1CCCN1/C=C1\N=C(c2ccc(Br)cc2)OC1=O` [(S)-1-[2-(4-Bromo-phenyl)-5-oxo-oxazol-(4Z)-ylidenemethyl]-pyrrolidine-2-carboxylic acid [(S)-1-carbamoyl-2-(4-hydroxy-phenyl)-ethyl]-amide], the IC50 in test [1] was 48000 nM; in test [3], 1100 nM.
Compound `CCC/C(=C1/N=C(c2ccc(Br)cc2)OC1=O)N1CC[C@H]1C(=O)N[C@@H](Cc1ccc(O)cc1)C(N)=O` [(S)-1-{1-[2-(4-Bromo-phenyl)-5-oxo-oxazol-(4Z)-ylidene]-butyl}-azetidine-2-carboxylic acid [(S)-1-carbamoyl-2-(4-hydroxy-phenyl)-ethyl]-amide] registered an IC50 in test [2] of 87 nM. This lies in the double-digit nanomolar range.
`CCC/C(=C1/N=C(c2ccc(Br)cc2)OC1=O)N1CCC[C@H]1C(=O)N[C@@H](Cc1ccc(O)cc1)C(N)=O` [(S)-1-{1-[2-(4-Bromo-phenyl)-5-oxo-oxazol-(4Z)-ylidene]-butyl}-pyrrolidine-2-carboxylic acid [(S)-1-carbamoyl-2-(4-hydroxy-phenyl)-ethyl]-amide]: the values for the IC50 in test [1] and in test [3] were 3110 nM and 760 nM, respectively.
For `CC/C(=C1/N=C(c2ccc(Br)cc2)OC1=O)N1CCC[C@H]1C(=O)N[C@@H](Cc1ccc(O)cc1)C(N)=O` [(S)-1-{1-[2-(4-Bromo-phenyl)-5-oxo-oxazol-(4Z)-ylidene]-propyl}-pyrrolidine-2-carboxylic acid [(S)-1-carbamoyl-2-(4-hydroxy-phenyl)-ethyl]-amide], the IC50 in test [1] was 5930 nM; in test [2] it was 850 nM.
